Data on two molecules can be found in patent publication US11382867B2, “Apomorphine-palmitic acid cocrystal solid particle crystalline form” (LEUKOS BIOTECH, S. L., priority 2018, dated 2022).

Structures are written as SMILES. Counter-ions that a name gives are not always drawn.

Data set [1] can be described thus: In vivo comparative pharmacokinetic and tolerance study, subcutaneous administration. The conditions noted are these: rats. The procedure:
Apomorphine Hydrochloride (Apo-HCl) was administered subcutaneously to Sprague Dawley rats three times a day for six days (total of eighteen 0.1-mL administrations). Both test items were compared for tolerance and systemic exposure: blood samples were collected from the lateral vein of the tail from all animals on treatment days 1 and 5 at all groups from main animals, samples were analyzed for apomorphine level determination.

Data set [2] is classed as physicochemical. The note with it: 40±2° C./75±5% RH, 1 week.
Another data set in a line: Solubility in water. It counts as physicochemical. The conditions noted are these: water at RT. The procedure:
Water was progressively added at RT to APO HCl (I) until complete dissolution was reached. Subsequently, the same volume of water was added at RT to the other salts in order to compare their solubility. The mixtures were stirred for 10-15 minutes to allow equilibration. As the salts remained insoluble, the suspensions were diluted with twice the original volume and allowed to equilibrate for another 10-15 minutes at RT.

In the case of `CCCCCCCCCCCCCCCC(=O)O.CCCCCCCCCCCCCCCC(=O)O.CN1CCc2cccc3c2[C@H]1Cc1ccc(O)c(O)c1-3` [Form O, Apo-Palmitic Acid (1:2)], the “Apomorphine levels in blood (PK profile)” value in data set [1] is “Sustained Apomorphine levels”. For the same molecule, in data set [1] (compared with Apo-HCl), the AUC entry was “higher than Apo-HCl” and the Cmax entry is on record as “lower than Apo-HCl”. Further, the stability entry in data set [2] is on record as “remained stable”.
Regarding `CN1CCc2cccc3c2[C@H]1Cc1ccc(O)c(O)c1-3` [APO HCl (I), Apomorphine hydrochloride], the “Apomorphine levels in blood (PK profile)” value in data set [1] was “rapid decrease of Apomorphine levels”. Moreover, the solubility in water result in “Solubility in water” was “soluble in water”. Further, the “volume of water for dissolution” value in “Solubility in water” (10-15 minutes equilibration) was 54 V.
